Measured values from patent publication US12077503B2, “Substituted cyclic amides and their use as herbicides” (FMC CORPORATION, priority 2015, dated 2024).

Tests used:
Assay in all cases: Test C preemergence
Format in all cases: in vivo
[1] = system: pigweed (Amaranthus retroflexus); details: for Plant response rating, Pigweed: scale 0 to 100, 0 no effect, 100 complete control
Summary of the method: (§1)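 After treatment with surfactant-containing formulations, either preemergence to seeds in loam-sand soil or postemergence to potted seedlings at 2–18 cm, plants were kept 13–15 d in a greenhouse. Observers then compared them with controls and assigned ratings, 0 signifying no effect and 100 complete control.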

[2] = system: wheat (winter wheat, Triticum aestivum); details: for Plant response rating, Wheat: scale 0 to 100, 0 no effect, 100 complete control
Summary of the method: as §1

[3] = system: velvetleaf (Abutilon theophrasti); details: for Plant response rating, Velvetleaf: scale 0 to 100, 0 no effect, 100 complete control
Summary of the method: as §1

[4] = system: nutsedge, yellow (yellow nutsedge, Cyperus esculentus); details: for Plant response rating, Nutsedge, Yellow: scale 0 to 100, 0 no effect, 100 complete control
Summary of the method: as §1

[5] = system: waterhemp (common waterhemp, Amaranthus rudis); details: for Plant response rating, Waterhemp: scale 0 to 100, 0 no effect, 100 complete control
Summary of the method: as §1

[6] = system: foxtail, giant (giant foxtail, Setaria faberii); details: for Plant response rating, Foxtail, Giant: scale 0 to 100, 0 no effect, 100 complete control
Summary of the method: as §1

[7] = system: barnyardgrass (Echinochloa crus-galli); details: for Plant response rating, Barnyardgrass: scale 0 to 100, 0 no effect, 100 complete control
Summary of the method: as §1

corn (Zea mays) = details: for Plant response rating, Corn: scale 0 to 100, 0 no effect, 100 complete control
Summary of the method: as §1

[8] = system: johnsongrass (Sorghum halepense); details: for Plant response rating, Johnsongrass: scale 0 to 100, 0 no effect, 100 complete control
Summary of the method: as §1

soybean (Glycine max) = details: for Plant response rating, Soybean: scale 0 to 100, 0 no effect, 100 complete control
Summary of the method: as §1

[9] = system: lambsquarters (Chenopodium album); details: for Plant response rating, Lambsquarters: scale 0 to 100, 0 no effect, 100 complete control
Summary of the method: as §1

[10] = system: ragweed (common ragweed, Ambrosia elatior); details: for Plant response rating, Ragweed: scale 0 to 100, 0 no effect, 100 complete control
Summary of the method: as §1

[11] = system: Galium (catchweed bedstraw, Galium aparine); details: for Plant response rating, Galium: scale 0 to 100, 0 no effect, 100 complete control
Summary of the method: as §1

[12] = system: oilseed rape (Brassica napus); details: for Plant response rating, Oilseed Rape: scale 0 to 100, 0 no effect, 100 complete control
Summary of the method: as §1

[13] = system: morningglory (Ipomoea coccinea); details: for Plant response rating, Morningglory: scale 0 to 100, 0 no effect, 100 complete control
Summary of the method: as §1

[14] = system: crabgrass, large (large crabgrass, Digitaria sanguinalis); details: for Plant response rating, Crabgrass, Large: scale 0 to 100, 0 no effect, 100 complete control
Summary of the method: as §1

[15] = system: blackgrass (Alopecurus myosuroides); details: for Plant response rating, Blackgrass: scale 0 to 100, 0 no effect, 100 complete control
Summary of the method: as §1

[16] = system: ryegrass, Italian (Italian ryegrass, Lolium multiflorum); details: for Plant response rating, Ryegrass, Italian: scale 0 to 100, 0 no effect, 100 complete control
Summary of the method: as §1

[17] = 31 g ai/ha, 0 is no effect, 100 is complete control

CN1CC(c2ccc(F)c(F)c2)C(C(=O)Nc2ccccc2S(C)(=O)=O)C1=O (stereo not drawn) [Compound 640]
50: Plant response rating, Pigweed ([1]; 62 g ai/ha) | Plant response rating, Lambsquarters ([9]; 125 g ai/ha) | Plant response rating, Blackgrass ([15]; 250 g ai/ha)
75: Plant response rating, Waterhemp ([5]; 62 g ai/ha)
5: Plant response rating, Oilseed Rape ([12]; 125 g ai/ha) | Plant response rating, Ryegrass, Italian ([16]; 62 g ai/ha) | Plant response rating, Ryegrass, Italian ([16]; 125 g ai/ha)
0: Plant response rating (scale of 0 to 100), Wheat [2, 17] | Plant response rating (scale of 0 to 100), Velvetleaf [3, 17] | Plant response rating, Velvetleaf ([3]; 62 g ai/ha) | Plant response rating (scale of 0 to 100), Nutsedge, Yellow [4, 17] | Plant response rating, Nutsedge, Yellow ([4]; 62 g ai/ha) | Plant response rating, Nutsedge, Yellow ([4]; 125 g ai/ha) | Plant response rating, Nutsedge, Yellow ([4]; 250 g ai/ha) | Plant response rating (scale of 0 to 100), Corn (corn (Zea mays); [17]) | Plant response rating, Corn (corn (Zea mays); 62 g ai/ha) | Plant response rating, Corn (corn (Zea mays); 125 g ai/ha) | Plant response rating, Corn (corn (Zea mays); 250 g ai/ha) | Plant response rating (scale of 0 to 100), Johnsongrass [8, 17] | Plant response rating, Johnsongrass ([8]; 62 g ai/ha) | Plant response rating, Johnsongrass ([8]; 125 g ai/ha) | Plant response rating (scale of 0 to 100), Soybean (soybean (Glycine max); [17]) | Plant response rating, Soybean (soybean (Glycine max); 62 g ai/ha) | Plant response rating, Soybean (soybean (Glycine max); 125 g ai/ha) | Plant response rating, Soybean (soybean (Glycine max); 250 g ai/ha) | Plant response rating (scale of 0 to 100), Ragweed [10, 17] | Plant response rating (scale of 0 to 100), Oilseed Rape [12, 17] | Plant response rating, Oilseed Rape ([12]; 62 g ai/ha) | Plant response rating (scale of 0 to 100), Morningglory [13, 17] | Plant response rating, Morningglory ([13]; 62 g ai/ha) | Plant response rating, Morningglory ([13]; 125 g ai/ha) | Plant response rating, Morningglory ([13]; 250 g ai/ha) | Plant response rating (scale of 0 to 100), Blackgrass [15, 17] | Plant response rating, Blackgrass ([15]; 62 g ai/ha) | Plant response rating (scale of 0 to 100), Ryegrass, Italian [16, 17]
60: Plant response rating, Wheat ([2]; 250 g ai/ha)
90: Plant response rating, Barnyardgrass ([7]; 62 g ai/ha) | Plant response rating, Barnyardgrass ([7]; 125 g ai/ha) | Plant response rating, Galium ([11]; 250 g ai/ha)
100: Plant response rating, Crabgrass, Large ([14]; 62 g ai/ha) | Plant response rating, Crabgrass, Large ([14]; 250 g ai/ha)
40: Plant response rating (scale of 0 to 100), Pigweed [1, 17] | Plant response rating, Velvetleaf ([3]; 250 g ai/ha) | Plant response rating, Johnsongrass ([8]; 250 g ai/ha) | Plant response rating, Ragweed ([10]; 62 g ai/ha) | Plant response rating, Ryegrass, Italian ([16]; 250 g ai/ha)
85: Plant response rating, Waterhemp ([5]; 250 g ai/ha) | Plant response rating (scale of 0 to 100), Foxtail, Giant [6, 17] | Plant response rating, Ragweed ([10]; 250 g ai/ha) | Plant response rating, Galium ([11]; 125 g ai/ha)
10: Plant response rating, Velvetleaf ([3]; 125 g ai/ha)
70: Plant response rating, Pigweed ([1]; 125 g ai/ha) | Plant response rating, Waterhemp ([5]; 125 g ai/ha) | Plant response rating, Lambsquarters ([9]; 250 g ai/ha) | Plant response rating, Ragweed ([10]; 125 g ai/ha)
80: Plant response rating, Pigweed ([1]; 250 g ai/ha) | Plant response rating (scale of 0 to 100), Barnyardgrass [7, 17] | Plant response rating, Galium ([11]; 62 g ai/ha) | Plant response rating, Oilseed Rape ([12]; 250 g ai/ha)
20: Plant response rating, Wheat ([2]; 62 g ai/ha) | Plant response rating, Blackgrass ([15]; 125 g ai/ha)
35: Plant response rating, Lambsquarters ([9]; 62 g ai/ha)
98: Plant response rating (scale of 0 to 100), Galium [11, 17] | Plant response rating, Crabgrass, Large ([14]; 125 g ai/ha)
95: Plant response rating, Foxtail, Giant ([6]; 62 g ai/ha) | Plant response rating, Foxtail, Giant ([6]; 125 g ai/ha) | Plant response rating, Foxtail, Giant ([6]; 250 g ai/ha) | Plant response rating, Barnyardgrass ([7]; 250 g ai/ha) | Plant response rating (scale of 0 to 100), Crabgrass, Large [14, 17]
45: Plant response rating, Wheat ([2]; 125 g ai/ha)
55: Plant response rating (scale of 0 to 100), Waterhemp [5, 17]
25: Plant response rating (scale of 0 to 100), Lambsquarters [9, 17]
